Measured values from patent publication US9359398B2, “Compounds for immunoproteasome inhibition” (Onyx Therapeutics, Inc., priority 2010, dated 2016).

Tests used:
immunoproteasome (L7) = immunoproteasome (L7) (Homo sapiens, UniProt P28062); test: Enzyme kinetic assay of chymotrypsin-like (CT-L) activity, isolated 20S immunoproteasome prep; assay type: biochemical; conditions: for EC50 ratio (B5/L7): 20S ratio: EC50 constitutive / EC50 immunoproteasome, greater than one = prefers immunoproteasome
Source text: (§1) This can be done using enzyme kinetic assays such as those disclosed in U.S. application Ser. No. 09/569,748, Example 2 and Stein et al., Biochem. […] A ratio of less than one denotes the molecule inhibits the CT-L activity of the constitutive proteasome better than that of the immunoproteasome. Ratios greater than one signifies the molecule inhibits chymotrypsin-like activity of the immunoproteasome better than that of the constitutive proteasome.

[1] = target: constitutive proteasome (B5) (Homo sapiens, UniProt P28074); test: Enzyme kinetic assay of chymotrypsin-like (CT-L) activity, isolated 20S constitutive proteasome prep; assay type: biochemical; conditions: isolated 20S proteasome prep with greater than 90% constitutive proteasome subunits
Source text: as §1

EC50 ratio (B5/L7) (immunoproteasome (L7))	EC50 for constitutive proteasome (B5) [1]	EC50 for immunoproteasome (L7) (immunoproteasome (L7); CT-L activity, isolated 20S proteasome prep with greater than 90% immunoproteasome subunits)	SMILES
>>1.0	Inactive		C[C@@H](NC(=O)CN1CCOCC1)C(=O)N[C@@H](Cc1c[nH]c2ccccc12)C(=O)N[C@@H](Cc1ccccc1)C(=O)[C@@]1(C)CO1
	Inactive	Inactive	CC(C)C[C@H](NC(=O)[C@H](Cc1ccccc1)NC(=O)c1cnccn1)C(=O)[C@@]1(C)CO1
18.34			C[C@H](NC(=O)CN1CCOCC1)C(=O)N[C@@H](Cc1ccc(O)cc1)C(=O)N[C@@H](Cc1ccccc1)B(O)O
6.49			C[C@@H](NC(=O)CN1CCOCC1)C(=O)N[C@@H](Cc1c[nH]c2ccccc12)C(=O)N[C@@H](Cc1ccccc1)B(O)O
17.04			C[C@H](NC(=O)CN1CCOCC1)C(=O)N[C@@H](Cc1ccc(O)cc1)C(=O)N[C@@H](Cc1ccccc1)C(=O)[C@@]1(C)CO1

SMILES	EC50 ratio (B5/L7) (immunoproteasome (L7))	EC50 for constitutive proteasome (B5) [1]	EC50 for immunoproteasome (L7) (immunoproteasome (L7); CT-L activity, isolated 20S proteasome prep with greater than 90% immunoproteasome subunits)
CC(C)C[C@H](NC(=O)[C@H](Cc1ccccc1)NC(=O)[C@H](CC(C)C)NC(=O)[C@H](CCc1ccccc1)NC(=O)CN1CCOCC1)B(O)O	1.10		
